Here are results for 14 molecules from publication PMC7006651, “Effect of 6-Benzoyl-benzothiazol-2-one scaffold on the pharmacological profile of α-alkoxyphenylpropionic acid derived PPAR agonists” (Journal of Enzyme Inhibition and Medicinal Chemistry, 2020).

The term Ki denotes a dissociation constant, usually derived from enzyme kinetics or from competition with a known ligand. As a reminder, the melting point is the temperature of the solid-liquid transition.

pEC50: −log10 of the molar value. Like-named read-outs stand apart in the source and are kept apart here.

In series [1] the target is T1, human PPARγ (Homo sapiens, UniProt P37231).
T1 sequence (P37231 235-505 limits assumed): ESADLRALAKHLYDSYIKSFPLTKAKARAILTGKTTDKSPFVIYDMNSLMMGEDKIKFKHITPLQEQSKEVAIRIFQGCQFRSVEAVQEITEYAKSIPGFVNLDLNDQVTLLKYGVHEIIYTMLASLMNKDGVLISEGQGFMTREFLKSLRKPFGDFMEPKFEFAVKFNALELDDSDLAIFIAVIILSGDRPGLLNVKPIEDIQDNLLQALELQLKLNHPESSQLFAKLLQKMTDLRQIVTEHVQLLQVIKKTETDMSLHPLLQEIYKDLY
Briefly: Membrane-bound PPARγ binding assay ([3H]rosiglitazone competition, filtration). The note with it: competition with [3H]rosiglitazone (4 nM), 180 min at 4 °C; read-out: Ki (nM), hPPARγ binding affinity. On the procedure:
The membrane-associated PPARγ was used as the biological source as previously described. Binding buffer consisted of 10 mM Tris/HCl, pH 8.2, containing 50 mM KCl and 1 mM dithiothreitol. […] Radioactivity was measured in a TopCount apparatus (Packard).

Series [2] deals with T2, human PPARγ (Homo sapiens, UniProt P37231).
T2 construct: expressed in transfected cells; host or cells: Cos-7
T2 sequence (P37231 238-503 limits assumed): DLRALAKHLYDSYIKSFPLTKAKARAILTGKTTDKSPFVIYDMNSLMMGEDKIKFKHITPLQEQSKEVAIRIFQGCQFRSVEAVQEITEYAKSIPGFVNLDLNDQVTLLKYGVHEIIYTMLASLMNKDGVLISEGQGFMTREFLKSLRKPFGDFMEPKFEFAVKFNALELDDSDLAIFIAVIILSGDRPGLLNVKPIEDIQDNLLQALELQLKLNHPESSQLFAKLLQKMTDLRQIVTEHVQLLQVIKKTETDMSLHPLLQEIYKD
Put plainly: Gene reporter (transactivation) assay, Cos-7 cells transfected with pGal4-hPPARγ.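 For all read-outs here: luciferase reporter (pG5-TK) activity normalised to cotransfected β-galactosidase, cells exposed to increasing compound concentrations in DMEM with 0.2% FCS, DMSO vehicle as control.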 It is filed as cell-based. The conditions noted are these: for pEC50: GAL4 chimeric hPPARγ, read-out: hPPAR gene reporter γEC50; for Emax: COS-7, 24 h, read-out: hPPAR gene reporter γGal4 (%).
Experimental: (§1) Cos-7 cells were transiently transfected with luciferase reporter plasmid (pG5-TK-pGL3) in the presence of pGal4-hPPARα or pGal4-hPPARγ (these vectors express chimeric proteins containing the Gal4 DNA-binding domain fused to the human PPARα or PPARγ ligand binding domain coding sequence) expression vector. […] Cells were transfected in OptiMEM without FCS for 3 h at 37°, using polyethylenimine (PEI), with reporter and expression plasmids, as stated in figure’s legend. The plasmid pBluescript (Stratagene, La Jolla, CA) was used as carrier DNA to set the final amount of DNA to 5.5 µg/dish. The pCMV- ß-galactosidase expression plasmid was cotransfected as a control for transfection efficiency. […] After 16 h, cells were trypsinised and seeded in 96-well plates at the density of 2 × 10^4 cells/well and incubated for 6 h in 10% FCS containing DMEM. Cells were then incubated for 24 h in DMEM containing 0.2% FCS and increasing concentrations of the compound tested or vehicle (DMSO). At the end of the experiment, cells were washed once with ice-cold PBS and the luciferase and the β–galactosidase assays were performed as described previously[20]. Cells were incubated 24 h in the presence of indicated concentrations of compound. Luciferase activity was measured and normalised to internal control β-galactosidase activity. […] EC50 were estimated using Prism software (GraphPad). All transfection experiments were performed at least three times.

The next series addresses T3, human PPARα (Homo sapiens, UniProt Q07869).
T3 construct: expressed in transfected cells; host or cells: Cos-7
T3 sequence (Q07869 239-466 limits assumed): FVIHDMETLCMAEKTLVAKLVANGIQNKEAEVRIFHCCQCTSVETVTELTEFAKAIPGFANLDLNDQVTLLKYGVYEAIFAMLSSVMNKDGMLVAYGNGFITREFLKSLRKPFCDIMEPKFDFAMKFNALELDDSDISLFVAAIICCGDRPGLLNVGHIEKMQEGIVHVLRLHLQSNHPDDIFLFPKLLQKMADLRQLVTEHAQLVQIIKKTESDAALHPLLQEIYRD
Briefly: Gene reporter (transactivation) assay, Cos-7 cells transfected with pGal4-hPPARα.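 For all read-outs here: luciferase signal from a Gal4-driven reporter normalised to cotransfected β-galactosidase activity, cells exposed to rising compound concentrations with DMSO vehicle as control.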 In kind it is cell-based. The note with it: for Emax: COS-7, 24 h, read-out: hPPAR gene reporter αGal4 (%); for Emax / hPPAR gene reporter αGal4 (%): Emax relative to maximum activation with WY14643 (10 µM) = 100%; for pEC50: GAL4 chimeric hPPARα, read-out: hPPAR gene reporter αEC50; for pEC50 / hPPAR gene reporter αGal4 (%): 24 h.

In the next series the test system is ob/ob mice. Put plainly: In vivo ob/ob mice: glycaemia, triglyceridemia, insulinemia, body weight.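 For all read-outs here: male ob/ob mice aged 10–12 weeks, given the compound once daily by oral gavage as a 1% hydroxyethylcellulose suspension, 8–12 animals per group.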 The conditions noted are these: oral, 4 days, synthesised compounds 8.4 µMkg^−1, references 3 mgkg^−1; for ΔBW (body weight variation between day 0 and day 4): expressed in % of rosiglitazone in the same study (= 100%), ob/ob mice; for Change (%) Gly (glycemia) / Change (%) Ins (insulin) / Change (%) TG (triglycerides): percent change versus control, ob/ob mice at day 4.

Where [3] appears, read: Emax relative to maximum activation with rosiglitazone (1 μM) = 100%, Cos-7 cells, 24 h.

Experimental for human PPARα: as §1
Experimental for ob/ob mice: The glucose- and triglyceride-lowering activities of the compounds prepared were then tested using 10–12-week-old male ob/ob mice. […] Mice had access to filtered (0.22 mm) tap water ad libitum and irradiated pelleted laboratory chow (transbreed, Special Diet Services, England) throughout the study. Compounds were prepared as a suspension in 1% hydroxyethylcellulose (HEC) for oral administration (10 mLkg^−1). The mice (n = 8–12 per group) were dosed by gavage daily between 15:00 and 17:00 for 4 days. Randomisation was performed based on glycaemia values. The body weight gain (DBW in grams) of the animals was determined by measuring the difference between body weight at the beginning and end of the study for each mouse. At day 5 between 9:00 and 11:00 the mice were weighed, and blood samples were collected into heparin-containing tubes by retro-orbital puncture (500 mL per mouse). […] Plasma samples were prepared by centrifugation (2000 g for 10 min), and stored at −20 °C. For triglycerides and insulin determination, the percent change in plasma level in the treated group was calculated relative to the mean plasma level in the vehicle-treated group. ANOVA, followed by Dunnett’s comparison test (one-tailed) was used to estimate significant differences between the plasma glycaemia, triglycerides, insulin, and DBW values between the control group and the individual compound-treated groups.
As a side effect index, body weight was also measured daily, and body weight variation was calculated as a percentage of the difference in body weight between days 4 and 0.

`CCOC(Cc1ccc(OCCn2c(=O)sc3ccc(C(=O)c4ccccc4)cc32)cc1)C(=O)O` (stereo not drawn) [Compound 31, 3-{4-[2–(5-benzoyl-2-oxo-benzothiazol-3-yl)-ethoxy]-phenyl}-2-ethoxypropionic acid]: the melting point lay in the range of 49 to 51 °C. For the same molecule, the Ki on human PPARγ [1] came to 8 nM. For the same molecule, on human PPARγ [2] (Cos-7 cells, 24 h), the pEC50 was 7.21. In addition, on human PPARα, the Emax is ≥ 80% and the pEC50 was 6.59.
The molecule `CCO[C@@H](Cc1ccc(OCCn2c(=O)sc3cc(/C(=N/OC)c4ccccc4)ccc32)cc1)C(=O)O` [Compound 44a, (S)-3-{4-[2–(6-[(E)-methoxyimino-phenyl-methyl]-2-oxo-benzothiazol-3-yl)-ethoxy]-phenyl}-2-ethoxypropionic acid] returned a melting point of 151 to 152 °C. The Ki at human PPARγ [1] is 0.7 nM. In the series with ob/ob mice, the “ΔBW (body weight variation between day 0 and day 4)” value (shortened to “ΔBW”) worked out at 177%; the “Change (%) Gly (glycemia)” value is −46%; the “Change (%) Ins (insulin)” value is given as −81%; the “Change (%) TG (triglycerides)” value was −79%. Also, the Emax on human PPARγ [2] (setting [3]) is 115%. On human PPARγ [2] (Cos-7 cells, 24 h), the pEC50 was 8.70. For the same molecule, on human PPARα, the Emax is 154% and the pEC50 was 7.49.
As to `CCOC(Cc1ccc(OCCN2C(=O)COc3ccc(C(=O)c4ccccc4)cc32)cc1)C(=O)O` (stereo not drawn) [Compound 35, 3-{4-[2–(6-benzoyl-3-oxo-benzo[1, 4]oxazin-4-yl)-ethoxy]-phenyl}-2-ethoxypropionic acid], the melting point is 47 to 49 °C. Further, the Ki on human PPARγ [1] turned out to be 3 nM. The Emax at human PPARγ [2] (setting [3]) is > 100%. Besides, the pEC50 at human PPARγ [2] (Cos-7 cells, 24 h) was 8.70. In addition, the Emax on human PPARα was 97%.
For the molecule `CON=C(c1ccccc1)c1ccc2c(c1)sc(=O)n2CCOc1ccc(C[C@H](OCC(F)(F)F)C(=O)O)cc1` [Compound 44b, (S)-3-{4-[2–(6-[(E)-methoxyimino-phenyl-methyl]-2-oxo-benzothiazol-3-yl)-ethoxy]-phenyl}-2–(2,2,2-trifluoro)ethoxypropionic acid], the Ki on human PPARγ [1] amounted to 3 nM. Also, in the series with ob/ob mice, the “ΔBW” value is recorded as −17%; the “Change (%) Gly (glycemia)” value is −36%; the “Change (%) Ins (insulin)” value is −89%; the “Change (%) TG (triglycerides)” value was −69%. Also, the “hPPAR gene reporter γGal4 (%)” value at human PPARγ [2] (setting [3]) is 150%. The pEC50 on human PPARγ [2] (Cos-7 cells, 24 h) is 9.05. Further, at human PPARα, the “hPPAR gene reporter αGal4 (%)” value is 59% and the pEC50 was 6.28.
The molecule `CCOC(Cc1ccc(OCCN2C(=O)Cc3cc(C(=O)c4ccccc4)ccc32)cc1)C(=O)O` (stereo not drawn) [Compound 37, 3-{4-[2–(5-benzoyl-2-oxo-2,3-dihydroindol-1-yl)ethoxy]phenyl}-2-ethoxypropionic acid] yielded a melting point of 68 to 70 °C. Also, the Ki at human PPARγ [1] is 6.5 nM. On human PPARγ [2] (setting [3]), the Emax was ≤ 75%. At human PPARγ [2] (Cos-7 cells, 24 h), the pEC50 was 7.40. The Emax at human PPARα turned out to be 100%.
For the molecule `CON=C(c1ccccc1)c1ccc2c(c1)sc(=O)n2CCOc1ccc(C[C@@H](OCC(F)(F)F)C(=O)O)cc1` [Compound 46b, (R)-3-{4-[2–(6-[(E)-methoxyimino-phenyl-methyl]-2-oxo-benzothiazol-3-yl)-ethoxy]-phenyl}-2–(2,2,2-trifluoro)ethoxypropionic acid], the Ki on human PPARγ [1] stood at 33 nM. The “hPPAR gene reporter γGal4 (%)” value on human PPARγ [2] (setting [3]) is 116%. Also, the pEC50 at human PPARγ [2] (Cos-7 cells, 24 h) is 8.05. For the same molecule, at human PPARα, the “hPPAR gene reporter αGal4 (%)” value amounted to 117% and the pEC50 was 5.78.
Consider `CN(CCOc1ccc(CC2SC(=O)NC2=O)cc1)c1ccccn1` (stereo not drawn) [rosi, Rosiglitazone, reference compound], for which, in the series on ob/ob mice, the “ΔBW” value is 100%; the “Change (%) Gly (glycemia)” value is given as −57%; the “Change (%) Ins (insulin)” value was −73%; the “Change (%) TG (triglycerides)” value is given as −46%.
Turning to `CCOC(Cc1ccc(OCCN2C(=O)COc3cc(C(=O)c4ccccc4)ccc32)cc1)C(=O)O` (stereo not drawn) [Compound 36, 3-{4-[2–(7-benzoyl-3-oxo-benzo[1, 4]oxazin-4-yl)-ethoxy]-phenyl}-2-ethoxypropionic acid], the melting point was in the range of 36 to 38 °C. In addition, the Ki at human PPARγ [1] stood at 1 nM. In addition, the Emax at human PPARγ [2] (setting [3]) is > 100%. In addition, the pEC50 at human PPARγ [2] (Cos-7 cells, 24 h) is 7.10. The Emax at human PPARα is 80%.
For the molecule `CCOC(Cc1ccc(OCCN2C(=O)C(F)(F)c3cc(C(=O)c4ccccc4)ccc32)cc1)C(=O)O` (stereo not drawn) [Compound 38, 3-{4-[2–(5-benzoyl-3,3-difluoro-2-oxo-2,3-dihydroindol-1-yl)ethoxy]phenyl}-2-ethoxy-propionic acid], the Ki on human PPARγ [1] came out at 4 nM. Moreover, the Emax at human PPARγ [2] (setting [3]) was ≤ 75%; on human PPARα, 89%. In addition, on human PPARγ [2] (Cos-7 cells, 24 h), the pEC50 was 8.30.
In the case of `Cc1cccc(Nc2cc(Cl)nc(SCC(=O)O)n2)c1C` [WY14643, reference compound], the “hPPAR gene reporter αGal4 (%)” value on human PPARα is on record as 100%.
With `COc1ccc(OC(=O)N(CC(=O)O)Cc2ccc(OCCc3nc(-c4ccccc4)oc3C)cc2)cc1` [mura, Muraglitazar, reference compound], in the series with ob/ob mice, the “ΔBW” value came out at 206%; the “Change (%) Gly (glycemia)” value was −46%; the “Change (%) Ins (insulin)” value is listed as −46%; the “Change (%) TG (triglycerides)” value is reported as −34%. In addition, the Emax at human PPARγ [2] is 128%. Moreover, at human PPARα, the Emax stood at 84% and the pEC50 was 6.23.
`CCOC(Cc1ccc(OCCN2C(=O)CSc3cc(C(=O)c4ccccc4)ccc32)cc1)C(=O)O` (stereo not drawn) [Compound 34, 3-{4-[2–(7-benzoyl-3-oxo-benzo[1, 4]thiazin-4-yl)-ethoxy]-phenyl}-2-ethoxypropionic acid] had a melting point of 58 to 60 °C. The Ki on human PPARγ [1] came out at 4 nM. Besides, the Emax at human PPARγ [2] (setting [3]) is 97%. Also, the pEC50 on human PPARγ [2] (Cos-7 cells, 24 h) was 7.43. On human PPARα, the Emax was 116% and the pEC50 is 5.69.
Turning to `CCOC(Cc1ccc(OCCN2C(=O)CSc3ccc(C(=O)c4ccccc4)cc32)cc1)C(=O)O` (stereo not drawn) [Compound 33, 3-{4-[2–(6-benzoyl-3-oxo-benzo[1, 4]thiazin-4-yl)-ethoxy]-phenyl}-2-ethoxypropionic acid], the melting point was in the range of 52 to 54 °C. The Ki at human PPARγ [1] worked out at 220 nM. Also, the Emax on human PPARγ [2] (setting [3]) is ≤ 70%. The pEC50 at human PPARγ [2] (Cos-7 cells, 24 h) was 6.66. For the same molecule, at human PPARα, the Emax is ≤ 20% and the pEC50 was 5.00.
For `CCO[C@H](Cc1ccc(OCCn2c(=O)sc3cc(/C(=N/OC)c4ccccc4)ccc32)cc1)C(=O)O` [Compound 46a, (R)-3-{4-[2–(6-[(E)-methoxyimino-phenyl-methyl]-2-oxo-benzothiazol-3-yl)-ethoxy]-phenyl}-2-ethoxypropionic acid], the melting point is 151 to 152 °C. Further, at human PPARγ [1], the Ki was determined as 86 nM. Moreover, the Emax at human PPARγ [2] (setting [3]) was determined as 87%. Also, the pEC50 on human PPARγ [2] (Cos-7 cells, 24 h) is 6.25. For the same molecule, at human PPARα, the Emax stood at 124% and the pEC50 is 5.83.
